In ChEMBL document CHEMBL2203186, “T-type Ca2+ channel blocker, KYS05047 induces G1 phase cell cycle arrest by decreasing intracellular Ca2+ levels in human lung adenocarcinoma A549 cells” (Bioorg Med Chem Lett, 2012):
Active and inactive are the calls of the source. The rule behind the calls is not given here.

What was measured:
[1] = test system: A549; experiment: Cell cycle arrest at G1 phase in human A549 cells at 7 uM after 24 hrs using propidium iodide by flow cytometry in presence of KCl; assay type: functional, cell-based
[2] = test system: A549; experiment: Inhibition of T-type Ca2+ channel in human A549 cells assessed as reduction in intracellular ca2+ level at 3 to 8 uM after 108 mins by Fluo-4 staining method in presence of KCl; assay type: cell-based
[3] = test system: A549; experiment: Inhibition of T-type Ca2+ channel in human A549 cells assessed as reduction in intracellular ca2+ level at 3 to 8 uM after 108 mins by Fluo-4 staining method; assay type: cell-based
[4] = test system: A549; experiment: Antitumor activity against human A549 cells xenografted in BALB/c nu/nu mouse assessed as tumor growth inhibition at 2 to 10 mg/kg, po administered 5 times a week for 21 days; assay type: functional, organism-based
[5] = test system: A549; experiment: Upregulation of p27Kip1 protein level in human A549 cells assessed as inhibition of mTOR activity at 7 uM by Western blot method; assay type: functional, cell-based; details: TDE = time-dependent effect
[6] = test system: A549; experiment: Upregulation of p27Kip1 protein level in human A549 cells assessed as inhibition of AKT activity at 7 uM by Western blot method; assay type: functional, cell-based; details: TDE = time-dependent effect
[7] = test system: A549; experiment: Upregulation of p27Kip1 protein level in human A549 cells assessed as inhibition of CDK4-mediated Rb phosphorylation at 7 uM by Western blot method; assay type: functional, cell-based; details: TDE = time-dependent effect
[8] = test system: A549; experiment: Upregulation of p27Kip1 protein level in human A549 cells assessed as inhibition of CDK2 activity at 7 uM by Western blot method; assay type: functional, cell-based; details: TDE = time-dependent effect
[9] = test system: A549; experiment: Effect on p21Waf1 protein level in human A549 cells at 7 uM after 3 to 24 hrs by Western blot method; assay type: functional, cell-based
[10] = test system: A549; experiment: Upregulation of p27Kip1 protein level in human A549 cells at 7 uM by Western blot method; assay type: functional, cell-based; details: TDE = time-dependent effect
[11] = test system: A549; experiment: Effect on Cyclin E protein level in human A549 cells at 7 uM after 3 to 24 hrs by Western blot method; assay type: functional, cell-based
[12] = test system: A549; experiment: Effect on Cyclin D1 protein level in human A549 cells at 7 uM after 3 to 24 hrs by Western blot method; assay type: functional, cell-based
[13] = test system: A549; experiment: Downregulation of Cdk4 protein level in human A549 cells at 7 uM after 3 to 24 hrs by Western blot method; assay type: functional, cell-based
[14] = test system: A549; experiment: Cell cycle arrest at G1 phase in human A549 cells at 7 uM after 24 hrs using propidium iodide by flow cytometry; assay type: functional, cell-based
[15] = test system: A549; experiment: Cell cycle arrest in human A549 cells assessed as reduction in cells at S phase at 2 to 7 uM after 24 hrs using propidium iodide by flow cytometry; assay type: functional, cell-based
[16] = test system: A549; experiment: Downregulation of Cdk2 protein level in human A549 cells at 7 uM after 3 to 24 hrs by Western blot method; assay type: functional, cell-based
[17] = test system: A549; experiment: Cytocidal activity in human A549 cells at 6 to 8 uM by trypan Blue assay; assay type: functional, cell-based
[18] = test system: A549; experiment: Growth inhibition of human A549 cells at 6 to 48 hrs by trypan Blue assay; assay type: functional, cell-based
[19] = test system: A549; experiment: Growth inhibition of human A549 cells at 4 to 12 uM by trypan Blue assay; assay type: functional, cell-based; details: TDE = time-dependent effect
[20] = test system: Mus musculus; experiment: Toxicity in BALB/c nu/nu mouse assessed as mortality at 20 mg/kg, ip administered twice a week for 21 days; assay type: organism-based; parameters: dose 20 mg/kg, route intraperitoneal; details: in vivo, 504 h
[21] = test system: Mus musculus; experiment: Toxicity in BALB/c nu/nu mouse assessed as change in body weight at 20 mg/kg, ip administered twice a week for 21 days; assay type: organism-based; parameters: dose 20 mg/kg, route intraperitoneal; details: in vivo, 504 h
[22] = test system: A549; experiment: Antitumor activity against human A549 cells xenografted in BALB/c nu/nu mouse assessed as tumor growth inhibition at 20 mg/kg, ip administered twice a week for 21 days; assay type: functional, organism-based; parameters: dose 20 mg/kg

## CC(C)(C)OC(=O)NCCCCCN1C(Nc2ccc(-c3ccccc3)cc2)=Nc2ccccc2C1CC(=O)NCc1ccccc1 (configuration not stated)
[1]
  Activity: inactive
[2]
  inhibition: inactive
[3]
  inhibition: Active
[4]
  TGI: Active
[5]
  inhibition: tde
[6]
  inhibition: tde
[7]
  inhibition: tde
[8]
  inhibition: tde
[9]
  Activity: inactive
[10]
  Activity: tde
[11]
  Activity: inactive
[12]
  Activity: inactive
[13]
  Activity: Active
[14]
  Activity: Active
[15]
  Activity: Active
[16]
  Activity: Active
[17]
  Activity: inactive
[18]
  growth inhibition (GI): Dose-dependent effect
[19]
  growth inhibition (GI): tde

## CC(=O)O[C@H]1C(=O)[C@@]2(C)[C@H]([C@H](OC(=O)c3ccccc3)[C@]3(O)C[C@H](OC(=O)[C@H](O)[C@@H](NC(=O)c4ccccc4)c4ccccc4)C(C)=C1C3(C)C)[C@]1(OC(C)=O)CO[C@@H]1C[C@@H]2O [PACLITAXEL]
[20]
  Activity: Non-toxic
[21]
  Activity: Non-toxic
[22]
  TGI: Active
